What follows are compounds tested against TLR2 (Homo sapiens, UniProt O60603) (assay: TLR2 agonist screening assay, HEK-Blue TLR2 reporter cell line (NF-kB-driven SEAP, absorbance at 600 nm)). Conditions: HEK-Blue TLR2 reporter cells, agonist mode; average of all runs (Table 3).
TLR2, sequence (O60603 21-784): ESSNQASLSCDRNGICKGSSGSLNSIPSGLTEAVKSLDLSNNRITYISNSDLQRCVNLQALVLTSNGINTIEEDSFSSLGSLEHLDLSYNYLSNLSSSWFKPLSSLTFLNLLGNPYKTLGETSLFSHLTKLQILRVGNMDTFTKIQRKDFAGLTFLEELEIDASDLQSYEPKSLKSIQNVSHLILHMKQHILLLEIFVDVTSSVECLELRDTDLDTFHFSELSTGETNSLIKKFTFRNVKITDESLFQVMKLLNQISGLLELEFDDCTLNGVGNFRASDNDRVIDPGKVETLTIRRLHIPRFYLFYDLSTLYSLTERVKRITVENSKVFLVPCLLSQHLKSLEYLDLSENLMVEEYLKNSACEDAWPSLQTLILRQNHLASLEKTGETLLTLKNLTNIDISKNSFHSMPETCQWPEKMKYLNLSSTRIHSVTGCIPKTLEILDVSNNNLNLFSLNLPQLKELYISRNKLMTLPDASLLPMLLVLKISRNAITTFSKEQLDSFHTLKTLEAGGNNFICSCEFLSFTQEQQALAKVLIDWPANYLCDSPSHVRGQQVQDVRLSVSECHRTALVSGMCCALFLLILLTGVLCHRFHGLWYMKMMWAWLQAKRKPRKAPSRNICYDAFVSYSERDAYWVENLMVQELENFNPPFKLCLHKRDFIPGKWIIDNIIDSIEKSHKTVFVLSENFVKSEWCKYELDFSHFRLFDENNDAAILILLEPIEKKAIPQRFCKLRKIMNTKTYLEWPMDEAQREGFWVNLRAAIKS
Type: cell-based
Parameters: host or cells: HEK-293 (HEK-Blue TLR2 reporter cell line)
How it was run: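 EC50 values come from dilution series of agonist on TLR2-transfected HEK-293 reporter cells carrying an NF-kB-SEAP construct. Cells sat overnight with compound in substrate-containing Detection medium at 1% DMSO, and secreted phosphatase activity was quantified as absorbance at 600 nm.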
CCCCCCNC(=O)C1CN(C(=O)c2ccc(C(=O)N3C[C@@H](C(=O)N[C@H]4C[C@@H]4c4ccccc4)[C@H](C(=O)N[C@H]4C[C@@H]4c4ccccc4)C3)cc2)CCN1C(=O)CCCCC (stereo partly drawn) [Compound 050, (3S,4S)-1-(4-(4-hexanoyl-3-(hexylcarbamoyl)piperazine-1-carbonyl)benzoyl)-N3,N4-bis((1S,2R)-2-phenylcyclopropyl)pyrrolidine-3,4-dicarboxamide] was tested, and the EC50 was 51 to 350 nM. CCCCCCCNC(=O)[C@@H]1CN(C(=O)c2ccc(C(=O)N3C[C@@H](C(=O)N[C@H]4C[C@@H]4c4ccccc4)[C@H](C(=O)N[C@H]4C[C@@H]4c4ccccc4)C3)cc2)C[C@H]1OCCCCCCC (relative stereo) [Compound 062, (3S,4S)-1-(4-((3R*,4S*)-3-(heptylcarbamoyl)-4-(heptyloxy)pyrrolidine-1-carbonyl)benzoyl)-N3,N4-bis((1S,2R)-2-phenylcyclopropyl)pyrrolidine-3,4-dicarboxamide] showed an EC50 of 51 to 350 nM. CCCCCCCCCCNC(=O)C1CN(C(=O)c2ccc(C(=O)N3C[C@@H](C(=O)N[C@H]4C[C@@H]4c4ccccc4)[C@H](C(=O)N[C@H]4C[C@@H]4c4ccccc4)C3)cc2)CCN1C(=O)CCCCCCC (stereo partly drawn) [Compound 066, (3S,4S)-1-(4-(3-(decylcarbamoyl)-4-octanoylpiperazine-1-carbonyl)benzoyl)-N3,N4-bis((1S,2R)-2-phenylcyclopropyl)pyrrolidine-3,4-dicarboxamide] showed an EC50 of 51 to 350 nM. With CCCCCCCOC1CN(C(=O)c2ccc(C(=O)N3C[C@@H](C(=O)N[C@H]4C[C@@H]4c4ccccc4)[C@H](C(=O)N[C@H]4C[C@@H]4c4ccccc4)C3)cc2)C[C@H]1OCCCCCCC (stereo partly drawn) [Compound 016] the EC50 was greater than 1000 nM.

Same assay, conditions: HEK-Blue TLR2 reporter cells, agonist mode; average of all runs (Table 4)
With CCCCCCC(=O)N[C@@H](CNC(=O)c1ccc(C(=O)N2C[C@@H](C(=O)N[C@H]3C[C@@H]3c3ccccc3)[C@H](C(=O)N[C@H]3C[C@@H]3c3ccccc3)C2)cc1)C(=O)N[C@H]1C[C@@H]1c1ccccc1 [Compound 143, (3S,4S)-1-(4-(((S)-2-heptanamido-3-oxo-3-(((1S,2R)-2-phenylcyclopropyl)amino)propyl)carbamoyl)benzoyl)-N3,N4-bis((1S,2R)-2-phenylcyclopropyl)pyrrolidine-3,4-dicarboxamide] the EC50 was 51 to 350 nM. Compound CCCCCCCCCC(=O)N[C@@H](Cc1nnc(-c2ccc(C(=O)N3C[C@@H](C(=O)N[C@H]4C[C@@H]4c4ccccc4)[C@H](C(=O)N[C@H]4C[C@@H]4c4ccccc4)C3)cc2)s1)C(=O)NCCCCCC [Compound 243, (3S,4S)-1-(4-(5-((S)-2-decanamido-3-(hexylamino)-3-oxopropyl)-1,3,4-thiadiazol-2-yl)benzoyl)-N3,N4-bis((1S,2R)-2-phenylcyclopropyl)pyrrolidine-3,4-dicarboxamide] has an EC50 of 0.1 to 50 nM. Work on CCCCCCCN[C@H]1CN(C(=O)c2ccc(C(=O)N3C[C@@H](C(=O)N[C@H]4C[C@@H]4c4ccccc4)[C@H](C(=O)N[C@H]4C[C@@H]4c4ccccc4)C3)cc2)C[C@@H]1OCCCCCCC [Compound 089, (3S,4S)-1-(4-((3S,4S)-3-(heptylamino)-4-(heptyloxy)pyrrolidine-1-carbonyl)benzoyl)-N3,N4-bis((1S,2R)-2-phenylcyclopropyl)pyrrolidine-3,4-dicarboxamide] yielded an EC50 greater than 1000 nM. With CCCCCCCO[C@H]1CN(C(=O)c2ccc(C(=O)N3C[C@@H](C(=O)N[C@H]4C[C@@H]4c4ccccc4)[C@H](C(=O)N[C@H]4C[C@@H]4c4ccccc4)C3)cc2)C[C@@H]1NC(=O)CCCCCC [Compound 080, (3S,4S)-1-(4-((3S,4S)-3-heptanamido-4-(heptyloxy)pyrrolidine-1-carbonyl)benzoyl)-N3,N4-bis((1S,2R)-2-phenylcyclopropyl)pyrrolidine-3,4-dicarboxamide] the EC50 was 51 to 350 nM. For CCCCCCCCCCCCCCNC(=O)[C@H]1CCCN(C(=O)c2ccc(C(=O)N3C[C@@H](C(=O)N[C@H]4C[C@@H]4c4ccccc4)[C@H](C(=O)N[C@H]4C[C@@H]4c4ccccc4)C3)cc2)C1 [Compound 123, (3S,4S)—N3,N4-bis((1S,2R)-2-phenylcyclopropyl)-1-(4-((S)-3-(tetradecylcarbamoyl)piperidine-1-carbonyl)benzoyl)pyrrolidine-3,4-dicarboxamide], the EC50 was 0.1 to 50 nM. Compound CCCCCCCCCCCCCCNC(=O)C[C@H]1CCCN1C(=O)c1ccc(C(=O)N2C[C@@H](C(=O)N[C@H]3C[C@@H]3c3ccccc3)[C@H](C(=O)N[C@H]3C[C@@H]3c3ccccc3)C2)cc1 [Compound 127, (3S,4S)-1-(4-((R)-2-(2-oxo-2-(tetradecylamino)ethyl)pyrrolidine-1-carbonyl)benzoyl)-N3,N4-bis((1S,2R)-2-phenylcyclopropyl) pyrrolidine-3,4-dicarboxamide] has an EC50 of 51 to 350 nM. CCCCCCCCCCCCCCNC(=O)[C@@H]1CN(C(=O)c2ccc(C(=O)N3C[C@@H](C(=O)N[C@H]4C[C@@H]4c4ccccc4)[C@H](C(=O)N[C@H]4C[C@@H]4c4ccccc4)C3)cc2)C[C@@H]1O (single isomer, unassigned) [Compound 103, (3S,4S)-1-(4-((3R*,4R*)-3-hydroxy-4-(tetradecylcarbamoyl)pyrrolidine-1-carbonyl)benzoyl)-N3,N4-bis((1S,2R)-2-phenylcyclopropyl) pyrrolidine-3,4-dicarboxamide] gave an EC50 of 351 to 1000 nM. With CCCCCCCC(=O)N[C@@H](CNC(=O)c1ccc(C(=O)N2C[C@@H](C(=O)N[C@H]3C[C@@H]3c3ccccc3)[C@H](C(=O)N[C@H]3C[C@@H]3c3ccccc3)C2)cc1)C(=O)NCCCCCC [Compound 173, (3S,4S)-1-(4-(((S)-3-(hexylamino)-2-octanamido-3-oxopropyl)carbamoyl)benzoyl)-N3,N4-bis((1S,2R)-2-phenylcyclopropyl)pyrrolidine-3,4-dicarboxamide] the EC50 was 0.1 to 50 nM. With CCCCCCNC(=O)[C@H](CN[C@H](c1ccc(C(=O)N2C[C@@H](C(=O)N[C@H]3C[C@@H]3c3ccccc3)[C@H](C(=O)N[C@H]3C[C@@H]3c3ccccc3)C2)cc1)C(F)(F)F)NC(=O)CCCCCC (single isomer, unassigned) [Compound 149] the EC50 was 51 to 350 nM. Compound CCCCCCNC(=O)C[C@@H](NC(=O)c1ccc(C(=O)N2C[C@@H](C(=O)N[C@H]3C[C@@H]3c3ccccc3)[C@H](C(=O)N[C@H]3C[C@@H]3c3ccccc3)C2)cc1)C(=O)NCCCCCC [Compound 117, (3S,4S)-1-(4-(((R)-1,4-bis(hexylamino)-1,4-dioxobutan-2-yl)carbamoyl)benzoyl)-N3,N4-bis((1S,2R)-2-phenylcyclopropyl) pyrrolidine-3,4-dicarboxamide] has an EC50 greater than 1000 nM. Work on CCCCCCCCCCCCCNC(=O)N[C@@H]1CCN(C(=O)c2ccc(C(=O)N3C[C@@H](C(=O)N[C@H]4C[C@@H]4c4ccccc4)[C@H](C(=O)N[C@H]4C[C@@H]4c4ccccc4)C3)cc2)C1 [Compound 079, (3S,4S)—N3,N4-bis((1S,2R)-2-phenylcyclopropyl)-1-(4-((R)-3-(3-tridecylureido)pyrrolidine-1-carbonyl)benzoyl)pyrrolidine-3,4-dicarboxamide] yielded an EC50 of 0.1 to 50 nM. CCCCCCCCCCCCCNC(=O)N[C@H]1CN(c2ncc(-c3ccc(C(=O)N4C[C@@H](C(=O)N[C@H]5C[C@@H]5c5ccccc5)[C@H](C(=O)N[C@H]5C[C@@H]5c5ccccc5)C4)cc3)s2)C[C@@H]1OC [Compound 244, (3S,4S)-1-(4-(2-((3S,4S)-3-methoxy-4-(3-tridecylureido)pyrrolidin-1-yl)thiazol-5-yl)benzoyl)-N3,N4-bis((1S,2R)-2-phenylcyclopropyl)pyrrolidine-3,4-dicarboxamide] gave an EC50 of 351 to 1000 nM. CCCCCCCCCCCCNC(=O)[C@@H]1CN(C(=O)c2ccc(C(=O)N3C[C@@H](C(=O)N[C@H]4C[C@@H]4c4ccccc4)[C@H](C(=O)N[C@H]4C[C@@H]4c4ccccc4)C3)cc2)CCN1C(C)=O [Compound 255, (3S,4S)-1-(4-((S)-4-acetyl-3-(dodecylcarbamoyl)piperazine-1-carbonyl)benzoyl)-N3,N4-bis((1S,2R)-2-phenylcyclopropyl)pyrrolidine-3,4-dicarboxamide] showed an EC50 greater than 1000 nM. In the case of CCCCCCCCCCCCCCC(=O)NC1CCN(S(=O)(=O)c2cccc(C(=O)N3C[C@@H](C(=O)N[C@H]4C[C@@H]4c4ccccc4)[C@H](C(=O)N[C@H]4C[C@@H]4c4ccccc4)C3)c2)CC1 [Compound 194, (3S,4S)-1-(3-((4-pentadecanamidopiperidin-1-yl)sulfonyl)benzoyl)-N3,N4-bis((1S,2R)-2-phenylcyclopropyl)pyrrolidine-3,4-dicarboxamide], the EC50 is reported as greater than 1000 nM. For CCCCCCNC(=O)[C@@H](CCNC(=O)CCCCCC)NC(=O)c1ccc(C(=O)N2C[C@@H](C(=O)N[C@H]3C[C@@H]3c3ccccc3)[C@H](C(=O)N[C@H]3C[C@@H]3c3ccccc3)C2)cc1 [Compound 119, (3S,4S)-1-(4-(((R)-4-heptanamido-1-(hexylamino)-1-oxobutan-2-yl)carbamoyl)benzoyl)-N3,N4-bis((1S,2R)-2-phenylcyclopropyl)pyrrolidine-3,4-dicarboxamide], the EC50 was greater than 1000 nM. CCCCCCCCCCCCCNC(=O)N[C@H]1CN(C(=O)Nc2ccc(C(=O)N3C[C@@H](C(=O)N[C@H]4C[C@@H]4c4ccccc4)[C@H](C(=O)N[C@H]4C[C@@H]4c4ccccc4)C3)cc2)C[C@@H]1OC [Compound 238, (3S,4S)-1-(4-((3S,4S)-3-methoxy-4-(3-tridecylureido)pyrrolidine-1-carboxamido)benzoyl)-N3,N4-bis((1S,2R)-2-phenylcyclopropyl)pyrrolidine-3,4-dicarboxamide] showed an EC50 of 351 to 1000 nM. CCCCCCNC(=O)[C@H]1CN(C(c2ccc(C(=O)N3C[C@@H](C(=O)N[C@H]4C[C@@H]4c4ccccc4)[C@H](C(=O)N[C@H]4C[C@@H]4c4ccccc4)C3)cc2)C(F)(F)F)CCN1C(=O)CCCCCC (stereo partly drawn) [Compound 158, (3S,4S)—N3,N4-bis((1S,2R)-2-phenylcyclopropyl)-1-(4-(2,2,2-trifluoro-1-((R)-4-heptanoyl-3-(hexylcarbamoyl)piperazin-1-yl)ethyl)benzoyl)pyrrolidine-3,4-dicarboxamide] showed an EC50 greater than 1000 nM.

From US11951094B2, “TLR2 modulator compounds, pharmaceutical compositions and uses thereof” (Axial Therapeutics, Inc., priority 2020, dated 2024)
